In patent publication US8741347B2, “Method for forming cyclodextrin polymer and lipophilic compound emulsions, resulting emulsions, and compositions including said emulsions” (Centre National de la Recherche Scientifique—CNRS, priority 2009, dated 2014):
Blank lines part the entries; values can stand above or below the compound they belong to.

Assays:
[1] = Interfacial rheology, interfacial tension by the drop method (Tracker); type: physicochemical
Method: The interface (oil/aqueous solution of polymer) elastic behavior is measured from the variation in interfacial tension. The apparatus used for measuring the elastic properties is a Tracker®, manufactured by the company […] Concept. The interfacial tension is measured by the drop method. A deformation of the interfacial area by dilation or by contraction of the volume of the drop creates a variation in the interfacial concentration of the polymers adsorbed at the interface. The Tracker® records the response of the interfacial tension and subsequently establishes the relationship between the deformation of the interface and this response, which describes the rheological behavior of the interface. A deformation of the interfacial area is repeated over time by imposing a sinusoidal variation in the volume of the drop, and thus makes it possible to establish the viscoelastic characteristics of the interface. […] The drop is formed at the end of the capillary connected to a syringe, the plunger of which is controlled by a motor. The needle used has a 180° curve in order to have a rising drop, the density of the oils being in this case lower than that of the aqueous phase. The gauge of the needle is 18, which corresponds to an internal diameter of 0.84 mm and an external diameter of 1.27 mm. The needle is made of Teflon in order to avoid wetting of the drop on the walls of the needle. […]

[2] = Emulsion formation and stability over time, optical microscopy observation on storage; type: physicochemical; conditions: cyclodextrin monomer 17 mg/ml in water + 10 mg Parsol MCX per ml, pulsed sonication 40 s, stored at 25° C. with tangential agitation
Method: The α-, β- or γ-cyclodextrin monomers are placed in solution in water at a concentration of 17 mg/ml. 10 mg of Parsol® MCX are added to 1 ml of the aqueous solution of α-, β- or γ-cyclodextrin thus prepared. The mixture is then subjected to pulsed sonication for 40 seconds in an ice-cold bath (0° C.). The resulting product is stored at 25° C. with tangential agitation.
The α-, β- or γ-cyclodextrin dimers/trimers are put into solution in water. 10 mg of Parsol® MCX are added to 1 ml of the aqueous solution of α-, β- or γ-cyclodextrin dimer/trimer thus prepared. The mixture is then subjected to pulsed sonication for 40 seconds in an ice-cold bath (0° C.). The resulting product is stored at 25° C. with tangential agitation.
The resulting emulsions are conditioned for storage at 25° C., with tangential agitation, at 37° C. or 4° C. for a varying period ranging from a few days up to a few months before use.
Emulsions (a) to (c) are formed by pulsed sonication for a period of 40 seconds and stored at 25° C.

interfacial tension ([1]; oil drop in aqueous poly-β-CD solution): approximately 12 mN/m
SMILES: CC(C)=CCC/C(C)=C/CC/C(C)=C/CC/C=C(\C)CC/C=C(\C)CCC=C(C)C [squalene]

outcome of attempt to prepare an emulsion [2]: formation of an insoluble precipitate
SMILES: OC[C@H]1O[C@@H]2O[C@H]3[C@H](O)[C@@H](O)[C@@H](O[C@H]4[C@H](O)[C@@H](O)[C@@H](O[C@H]5[C@H](O)[C@@H](O)[C@@H](O[C@H]6[C@H](O)[C@@H](O)[C@@H](O[C@H]7[C@H](O)[C@@H](O)[C@@H](O[C@H]1[C@H](O)[C@H]2O)O[C@@H]7CO)O[C@@H]6CO)O[C@@H]5CO)O[C@@H]4CO)O[C@@H]3CO [α-cyclodextrin monomers, α-cyclodextrin]
outcome of attempt to prepare an emulsion ([2]; listed as α-monomers): an insoluble precipitate is formed as early as the first day (day zero)

outcome of attempt to prepare an emulsion [2]: formation of an insoluble precipitate
SMILES: OC[C@H]1O[C@@H]2O[C@H]3[C@H](O)[C@@H](O)[C@@H](O[C@H]4[C@H](O)[C@@H](O)[C@@H](O[C@H]5[C@H](O)[C@@H](O)[C@@H](O[C@H]6[C@H](O)[C@@H](O)[C@@H](O[C@H]7[C@H](O)[C@@H](O)[C@@H](O[C@H]8[C@H](O)[C@@H](O)[C@@H](O[C@H]1[C@H](O)[C@H]2O)O[C@@H]8CO)O[C@@H]7CO)O[C@@H]6CO)O[C@@H]5CO)O[C@@H]4CO)O[C@@H]3CO [β-cyclodextrin monomers, β-cyclodextrin]
behaviour of the oil/aqueous solution interface ([1]; squalene (borage, ginger) drop in aqueous cyclodextrin solution): formation of a rigid membrane at the surface of the squalene drop
outcome of attempt to prepare an emulsion ([2]; listed as β-monomers): an insoluble precipitate is formed as early as the first day (day zero)

SMILES: OC[C@H]1O[C@@H]2O[C@H]3[C@H](O)[C@@H](O)[C@@H](O[C@H]4[C@H](O)[C@@H](O)[C@@H](O[C@H]5[C@H](O)[C@@H](O)[C@@H](O[C@H]6[C@H](O)[C@@H](O)[C@@H](O[C@H]7[C@H](O)[C@@H](O)[C@@H](O[C@H]8[C@H](O)[C@@H](O)[C@@H](O[C@H]9[C@H](O)[C@@H](O)[C@@H](O[C@H]1[C@H](O)[C@H]2O)O[C@@H]9CO)O[C@@H]8CO)O[C@@H]7CO)O[C@@H]6CO)O[C@@H]5CO)O[C@@H]4CO)O[C@@H]3CO [γ-cyclodextrins, γ-cyclodextrin]
outcome of attempt to prepare an emulsion [2]: formation of an emulsion (for two days) and then a precipitation
outcome of attempt to prepare an emulsion ([2]; listed as γ-monomer): initially forms an emulsion and then precipitates rapidly (two days)
